Results on 2 molecules are retold here after PMC4585798 (Scientific Reports, 2015).

No end group written: not given here.

The target in one data set is hα9α10[L7H] nAChR (Homo sapiens, UniProt Q9GZZ6+Q9UGM1, L31H). The data set is described as follows: cell-based. It is filed as cell-based.
Data set [1] deals with the molecule itself. The data set is described as follows: mass spectrometry before and after reduction and alkylation.

Sequence of hα9α10[L7H] nAChR (Q9UGM1 26-479 limits assumed, stated change not applied): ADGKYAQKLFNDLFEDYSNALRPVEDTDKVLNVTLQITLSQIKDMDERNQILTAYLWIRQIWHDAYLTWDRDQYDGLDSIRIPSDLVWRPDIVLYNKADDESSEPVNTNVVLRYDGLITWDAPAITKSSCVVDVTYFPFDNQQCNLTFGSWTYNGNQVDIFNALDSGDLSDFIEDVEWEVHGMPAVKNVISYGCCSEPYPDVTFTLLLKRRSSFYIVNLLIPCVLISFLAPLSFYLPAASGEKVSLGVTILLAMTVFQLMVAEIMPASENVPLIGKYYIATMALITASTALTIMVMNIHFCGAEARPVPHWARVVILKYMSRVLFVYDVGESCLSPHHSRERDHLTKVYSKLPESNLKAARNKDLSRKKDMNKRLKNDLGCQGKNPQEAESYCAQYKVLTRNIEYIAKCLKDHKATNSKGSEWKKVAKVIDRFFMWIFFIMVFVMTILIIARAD
Sequence of hα9α10[L7H] nAChR (Q9GZZ6 25-450 L31H limits assumed, stated change not applied): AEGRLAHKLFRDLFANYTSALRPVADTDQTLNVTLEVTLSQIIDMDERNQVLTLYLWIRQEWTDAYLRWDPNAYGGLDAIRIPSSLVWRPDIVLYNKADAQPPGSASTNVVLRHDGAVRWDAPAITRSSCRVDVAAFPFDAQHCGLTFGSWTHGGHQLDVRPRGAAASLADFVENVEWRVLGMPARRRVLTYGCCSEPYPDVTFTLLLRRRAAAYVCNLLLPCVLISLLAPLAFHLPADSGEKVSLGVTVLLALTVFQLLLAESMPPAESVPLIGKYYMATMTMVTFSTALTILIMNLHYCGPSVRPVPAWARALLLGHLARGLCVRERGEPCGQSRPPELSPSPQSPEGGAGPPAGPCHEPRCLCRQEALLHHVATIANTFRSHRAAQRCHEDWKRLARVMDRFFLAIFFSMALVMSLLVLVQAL

With Vc1.1 [reference compound], the “effect of α10 L7H mutation on inhibitory activity (in words)” value on hα9α10[L7H] nAChR was “not affected by this mutation”.
Take DVHRPCQSVRPGRVWGKCCLTRLCSTMCCARADCTCVYHTWRGHGCSCVM (ends and bridges not checked; cysteine pairing not given here) [αD-conotoxin GeXXA]: the stoichiometry N (commonly the number of molecules, sites or subunits per partner or assembly) in data set [1] was 2.
